According to ChEMBL document CHEMBL1201862, “PubChem BioAssay data set” (2004):
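Compound exposure: 48 hours, 5 concentrations, 96-well plates. GI50 marks 50% less growth.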 The source made the active and inactive calls. Cut-off read from the data, not from the text of the source: active = GI50 up to about 1.1 µM and inactive = higher.

Columns and labels:
Assay in all cases: NCI tumour cell line growth inhibition, 48 h
DLD-1 = tested on: DLD-1
DMS-114 = tested on: DMS-114
DMS-273 = tested on: DMS-273
KM-20L2 = tested on: KM-20L2
M19-MEL = tested on: M19-MEL
XF498 = tested on: XF498
BT-549 = tested on: BT-549
T47D = tested on: T47D

In the case of O=C1CCCCCCCCCCC1CN1CCCCC1 (stereo not drawn), the GI50 (DLD-1) is reported as 54.8 µM (inactive), the GI50 (DMS-114) is reported as 60.5 µM (inactive) and the GI50 (DMS-273) is reported as > 100 µM (inactive). The GI50 (KM-20L2) was 31.3 µM (inactive), the GI50 (M19-MEL) was > 100 µM (inactive) and the GI50 (XF498) was 89.5 µM (inactive).

In the case of CCOC(=O)NC(=O)c1cn(CCN(CCO)C(=O)NCCCCCCNC(=O)N(CCO)CCn2cc(C(=O)NC(=O)OCC)c(=O)[nH]c2=O)c(=O)[nH]c1=O, the GI50 (DLD-1) is reported as > 100 µM (inactive), the GI50 (DMS-114) is reported as > 100 µM (inactive) and the GI50 (DMS-273) is reported as > 100 µM (inactive). The GI50 (KM-20L2) was > 100 µM (inactive), the GI50 (M19-MEL) was > 100 µM (inactive) and the GI50 (XF498) was > 100 µM (inactive).

For Nc1nc(-c2ccccc2)nc2oc(-c3cccs3)nc12, the GI50 (BT-549) was > 100 µM (inactive) and the GI50 (T47D) was > 100 µM (inactive).

Cc1c2ccccc2c(CSC(=N)N)c2ccccc12 was tested, and the GI50 (BT-549) was 0.902 µM (active) and the GI50 (T47D) was 0.535 µM (active).

For CCOC(=O)Cc1nc2cc(F)c(F)cc2[nH]c1=O, the GI50 (BT-549) was > 100 µM (inactive).

For CCN(CC)C1Oc2cc3c(cc2C(c2cc(OC)c(OC)c(OC)c2)C1C)OCO3 (stereo not drawn), the GI50 (BT-549) was 7.1 µM (inactive) and the GI50 (T47D) was 9.35 µM (inactive).

O=C1C=CC(=O)c2c1ccc1c3ccccc3n(CCCCCn3c4ccccc4c4ccc5c(c43)C(=O)C=CC5=O)c21 was tested, and the GI50 (BT-549) was 32.4 µM (inactive) and the GI50 (T47D) was 4.81 µM (inactive).

With Oc1ccc(/C=C/c2cccc(/C=C/c3ccc(O)c(O)c3)n2)cc1O the GI50 (BT-549) was 10.9 µM (inactive) and the GI50 (T47D) was 3.4 µM (inactive).

In the case of CC12CC(OC(=O)[C@]1(C)O)[C@@H]([C@]1(O)CC[C@H]3[C@@H]4C[C@H]5O[C@]56[C@@H](O)C=CC(=O)[C@]6(C)[C@H]4CC[C@@]31C)C2 (stereo partly drawn), the GI50 (BT-549) is reported as 4.06 µM (inactive) and the GI50 (T47D) is reported as 8.02 µM (inactive).

In the case of CCCCNC(=O)Cn1c2ccc(Br)cc2c2nc3ccccc3nc21, the GI50 (T47D) is reported as 93.8 µM (inactive).

For CC1CC[C@@]2(OC1)OC1C[C@H]3[C@@H]4CC=C5CC(OC6OC(CO)C(OC7OC(CO)C(O)C(OC8OCC(O)C(O)C8O)C7OC7OC(CO)C(OC8OC(C)C(OC9OC(C)C(O)C(O)C9O)C(O)C8O)C(O)C7O)C(O)C6O)CCC5(C)[C@H]4CCC3(C)C1[C@@H]2C (stereo partly drawn), the GI50 (BT-549) was 9.2 µM (inactive) and the GI50 (T47D) was 9.29 µM (inactive).

COC(CNC(=O)C(C)NC(=O)C(C)NC(=O)c1ccccc1)OC (stereo not drawn) was tested, and the GI50 (BT-549) was > 100 µM (inactive) and the GI50 (T47D) was > 100 µM (inactive).

In the case of S=c1sc2c(s1)SCCCCSCCCCSc1sc(=S)sc1SCCCCSCCCCS2, the GI50 (BT-549) is reported as > 100 µM (inactive) and the GI50 (T47D) is reported as > 100 µM (inactive).

For O=C1CC(c2ccccc2Cl)C2(C(=O)NC(=O)NC2=O)C(c2ccccc2Cl)C1 (stereo not drawn), the GI50 (BT-549) was > 100 µM (inactive) and the GI50 (T47D) was 18.8 µM (inactive).

O=S1(=O)C[C@@H](O)[C@H](O)CS1 was tested, and the GI50 (DLD-1) was > 100 µM (inactive), the GI50 (DMS-114) was > 100 µM (inactive) and the GI50 (DMS-273) was > 100 µM (inactive). For the same compound, the GI50 (KM-20L2) was > 100 µM (inactive), the GI50 (M19-MEL) was > 100 µM (inactive) and the GI50 (XF498) was > 100 µM (inactive).

For CN(C)c1ccc(/N=C2/C=CC(=C(C#N)C#N)c3ccccc32)cc1, the GI50 (BT-549) was 0.828 µM (active), the GI50 (DLD-1) was 0.294 µM (active) and the GI50 (DMS-114) was 0.234 µM (active). For the same compound, the GI50 (DMS-273) was 0.303 µM (active), the GI50 (KM-20L2) was 0.209 µM (active) and the GI50 (M19-MEL) was 0.904 µM (active). For the same compound, the GI50 (XF498) was 0.261 µM (active).

CC(C)(Oc1ccc(C2C[C@H]2Cl)cc1)C(=O)O (stereo partly drawn) was tested, and the GI50 (BT-549) was > 100 µM (inactive) and the GI50 (T47D) was 15.3 µM (inactive).

For CC(C)CC1C(=O)OC(C)(C)OC1=O, the GI50 (BT-549) was > 100 µM (inactive) and the GI50 (T47D) was > 100 µM (inactive).

In the case of C=C(C)[C@@H]1CC[C@@H](C)[C@](O)([C@@H]2C[C@@H]([C@H](COC(=O)c3ccccc3)OC(=O)c3ccccc3)OC2=O)C1, the GI50 (BT-549) is reported as > 100 µM (inactive).

COc1cccc(/C=C2\C(=O)N(C(=O)c3ccc(NC(C)=O)cc3)N=C2C)c1 was tested, and the GI50 (DLD-1) was > 100 µM (inactive), the GI50 (DMS-114) was > 100 µM (inactive) and the GI50 (DMS-273) was > 100 µM (inactive). For the same compound, the GI50 (M19-MEL) was > 100 µM (inactive) and the GI50 (XF498) was > 100 µM (inactive).

OC12CCC3(O)c4ccccc4C3C1c1ccccc12 (stereo not drawn) was tested, and the GI50 (DMS-273) was > 100 µM (inactive), the GI50 (KM-20L2) was > 100 µM (inactive) and the GI50 (M19-MEL) was > 100 µM (inactive). The GI50 (XF498) was > 100 µM (inactive).

For CCCCc1ccc(Nc2cc(=O)n(C)c(=O)[nH]2)cc1, the GI50 (BT-549) was > 100 µM (inactive) and the GI50 (T47D) was > 100 µM (inactive).

For Cc1ccc(S(=O)(=O)NCCCSCCSCCCN)cc1, the GI50 (T47D) was > 100 µM (inactive).

O=C(Cn1ccnc1[N+](=O)[O-])c1ccc(F)cc1 was tested, and the GI50 (DMS-114) was > 100 µM (inactive), the GI50 (DMS-273) was > 100 µM (inactive) and the GI50 (KM-20L2) was > 100 µM (inactive). For the same compound, the GI50 (M19-MEL) was > 100 µM (inactive) and the GI50 (XF498) was > 100 µM (inactive).

In the case of COc1ccc(Nc2cc(O)nc(O)n2)cc1, the GI50 (BT-549) is reported as > 100 µM (inactive).

With CCC1(C)C=Cc2c(cc(O)c3c(=O)c4ccccc4n(C)c23)O1 (stereo not drawn) the GI50 (BT-549) was > 10 µM (inactive) and the GI50 (T47D) was > 10 µM (inactive).

For COC(=O)C(/C(=N\O)C(=O)Nc1cccc(Cl)c1C)c1cnc2ccccc2n1 (stereo not drawn), the GI50 (BT-549) was > 100 µM (inactive) and the GI50 (T47D) was > 100 µM (inactive).

For C=CCn1c(=O)c(Br)nn(CCOCP(=O)(OCC)OCC)c1=O, the GI50 (T47D) was > 100 µM (inactive).

Cc1ccc2nc(CN3CCCCC3)cc(=O)n2c1 was tested, and the GI50 (BT-549) was > 100 µM (inactive).

With O=C(CC(C(=O)c1cccs1)c1ccccc1)c1ccccc1O (stereo not drawn) the GI50 (T47D) was 9.66 µM (inactive).

With CC(C)N(Cc1ccccc1)S(=O)(=O)c1nc(C(C)(C)C)n[nH]1 the GI50 (BT-549) was > 100 µM (inactive) and the GI50 (T47D) was 92 µM (inactive).

With O=C1N[C@@H]2C(=C[C@H](O)[C@@H](O)[C@H]2O)c2cc3c(c(O)c21)OCO3 [NARCICLASINE] the GI50 (DLD-1) was 0.045 µM (active), the GI50 (DMS-273) was 0.045 µM (active) and the GI50 (KM-20L2) was 0.045 µM (active). For the same compound, the GI50 (XF498) was 0.045 µM (active).
